Data: patent US8067032B2, “Method for preparing submicron particles of antineoplastic agents” (Baxter International Inc., priority 2000, dated 2011)
Converted amounts (≈) assume the structure as drawn.

Assay: Solubility of itraconazole in NMP
Format: physicochemical
Settings: organic solvent or mixture, room temperature (approximately 22° C.)
Method: Sample preparation. […] A 0.20 g/mL drug concentrate solution was prepared by dissolving 2.0 g of itraconazole and 0.2 g Poloxamer 188 in 10 mL NMP with heat and stirring. This solution was then allowed to cool to room temperature to yield a supersaturated solution. A microprecipitation experiment was immediately performed in which 1.5 mL of the drug concentrate was added to 30 mL of an aqueous solution containing 0.1% deoxycholate, 2.2% glycerol. The aqueous solution was maintained at ˜2° C. and a stir rate of 350 rpm during the addition step. The resulting presuspension was homogenized at ˜13,000 psi for approx. 10 minutes at 50° C. The suspension was then centrifuged, the supernatant decanted, and the solid crystals dried in a vacuum oven at 30° C. for 135 hours.

- solubility: 160 mg/mL (≈ 227 mM)
Structure (SMILES): CCC(C)n1ncn(-c2ccc(N3CCN(c4ccc(OCC5COC(Cn6cncn6)(c6ccc(Cl)cc6Cl)O5)cc4)CC3)cc2)c1=O (stereo not shown) [itraconazole]
